Experimental findings from publication PMC9721426, “Novel piperine-carboximidamide hybrids: design, synthesis, and antiproliferative activity via a multi-targeted inhibitory pathway” (Journal of Enzyme Inhibition and Medicinal Chemistry, 2022) are described below.

The test system of experiment [1] is A-549 (epithelial cancer cell line). Kind of experiment: Antiproliferative MTT assay, A-549. The format is cell-based. To be noted: Homo sapiens, A549; A-549, MTT; read-out: Antiproliferative activity IC50 ± SEM, A-549. As to the method: (§1) The MTT assay was performed using various cell lines in accordance with previously reported procedures[28]^,[29] to investigate the antiproliferative potential of VIa-k. Refer to Appendix A. […]
(§2) added (in 200 μL medium to yield a final concentration of 0.1% v/v) to the wells of plates. A single compound was designated with four wells followed by incubation of […]
(§3) After incubation, medium was removed completely from the plates followed by addition of MTT (0.4 mg/mL in medium) to each well and subsequent incubation of plates for 3h. MTT (along with the medium) was removed and DMSO (150μL) was added to each well of the culture plates, followed by vortexing and subsequent measurement of absorbance (at 540 nm) using microplate reader. The data are shown as percentage inhibition of proliferation in comparison with controls containing 4.2.1.2. Assay for antiproliferative effect […]
(§4) The percentage cytotoxicity of compounds was calculated using the following […]
(§5) Where ATC= Absorbance of treated cells and AC= Absorbance of control. […]
(§6) used as positive control in the assay. […]
On the technique in general: Tetrazolium assays rely on reduction of a dye to a coloured formazan, in cell work by metabolically active cells.

The test system of experiment [2] is MCF-7 (breast cancer cell line). The experiment can be described thus: Antiproliferative MTT assay, MCF-7. The experiment is classed as cell-based. Particulars: Homo sapiens, MCF7; MCF-7, MTT; read-out: Antiproliferative activity IC50 ± SEM, MCF-7. As for the experimental part: as §1, §2, §3, §4, §5, §6
In experiment [3] the test system is HT-29 (colon cancer cell line). Kind of experiment: Antiproliferative MTT assay, HT-29. The format is cell-based. To be noted: Homo sapiens; HT-29, MTT; read-out: Antiproliferative activity IC50 ± SEM, HT-29. As for the experimental part:
as §1, §2, §3, §4, §5, §6

The subject of experiment [4] is four human cancer cell lines (Panc-1, MCF-7, HT-29, A-549). The experiment can be described thus: Antiproliferative MTT assay, average (GI50) over the four cancer cell lines. The experiment is classed as cell-based. Particulars: Homo sapiens; average of IC50 versus A-549, MCF-7, Panc-1, HT-29. As for the experimental part: The average (GI50) versus the four cancer cell lines was chosen for ease of manipulation.
as §1, §2, §3, §4, §5, §6

In the next experiment the target is T1, EGFR (Homo sapiens, UniProt P00533).
T1 construct: cytoplasmic domain (EGFR -CD, amino acids 645–1186); His6 (N); made in house; host or cells: Sf-9 insect cells (baculovirus, pBlueBacHis2B / pFASTBacHTc)
Kind of experiment: EGFR-TK inhibitory assay. The experiment is classed as biochemical. To be noted: EGFR-TK assay; read-out: EGFR inhibition IC50 ± SEM. As for the experimental part:
4.2.1.3. EGFR inhibitory assay
EGFR-TK assay was performed to evaluate the inhibitory potency of the tested compounds against EGFR30. Baculoviral expression vectors including pBlueBacHis2B […]
sequence comprised a sequence that encoded (His) 6. Sf-9 cells were infected for 72h for protein expression. The pellets of Sf-9 cells were solubilized in a buffer containing sodium vanadate (100 µM), aprotinin (10 µg/mL), triton (1%), HEPES buffer (50mM), ammonium molybdate (10 µM), benzamidine HCl (16 µg/mL), NaCl (10 mM), leupeptin (10 µg/mL) and pepstatin (10 µg/mL) at 0°C for 20 min at pH 7.4, followed by centrifugation for 20 min. To eliminate the non-specifically bound material, a Ni-NTA super flow packed column was used to pass through and wash the crude extract supernatant first with 10 mM and then with 100 mM imidazole. […]
NaCl (50 mM), HEPES (20 mM), glycerol (10%) and 1 µg/mL each of aprotinin, leupeptin and pepstatin for 120 min. The purification was performed either at 4 °C or on ice. To record autophosphorylation level, EGFR kinase assay was carried out on the basis of DELFIA/Time-Resolved Fluorometry. The compounds were first dissolved in DMSO […]
pH 7.4. Each compound (10 µL) was incubated with recombinant enzyme (10 µL, 5 ng for EGFR, 1:80 dilution in 100 mM HEPES) for 10 min at 25 °C, subsequent to the addition of 5X buffer (10 µL, containing 2 mM MnCl2, 100 µM Na3VO4, 20 mM HEPES and 1 mM DTT) and ATP-MgCl2 (20 µL, containing 0.1 mM ATP and 50 mM MgCl 2) and incubation for 1h. The negative and positive controls were included in each plate by the incuba tion of enzyme either with or without ATP -MgCl2. The liquid was removed after incubation and the plates were washed thrice using wash buffer. Europium -tagged antiphosphotyrosine antibody (75 µL, 400 ng) was added to each well followed by incubation of 1h a nd then washing of the plates using buffer. The enhancement solution was added to each well and the signal was recorded at excitation and emission […]
The autophosphorylation percentage inhibition by compounds was calculated using the following equation: […]
Using the curves of percentage inhibition of eight concentrations of each compound, IC 50

The next experiment concerns the target T2, BRAF^V600E (Mus musculus, UniProt P28028, V585E).
T2 construct: Mouse full-length GST-tagged BRAFV600E; GST; purchased Invitrogen PV3849
The experiment can be described thus: BRAF V600E kinase assay. The experiment is classed as biochemical. To be noted: read-out: BRAF^V600E inhibition IC50 ± SEM. As for the experimental part: An in vitro study was conducted to evaluate the anti-BRAF^V600E of VIc, VIf, VIg, VIi, and VIk[31]. […] An in vitro study[31] was conducted to evaluate the anti-BRAF^V600E of VIc, VIf, VIg, VIi, and Vik. See Appendix A.
4.2.1.4. BRAF kinase assay
V600E mutant BRAF kinase assay was performed to investigate the activity of the most […]
Mouse full-length GST-tagged BRAFV600E (7.5 ng, Invitrogen, PV3849) was pre-incubated with drug (1 µL) and assay dilution buffer (4 µL) for 60 min at 25 °C. In assay dilution buffer, a solution (5 µL) containing MgCl 2 (30 mM), ATP (200 µM), recombinant human full length (200 ng) […] N-terminal His-tagged MEK1 (Invitrogen) was added to start the assay, subsequent to incubation for 25 min at 25 °C. The assay was stopped using 5X protein denaturing buffer (LDS) solution (5 µL).
To further denature the protein, heat (70° C) was applied for 5 min.
NuPage gel plates (Invitrogen) were used to carry out electrophoresis (at 200 V). 10 µL of each reaction was loaded into the precast plates and electrophoresis was allowed to proceed. After completion of electrophoresis, the front part of the precast gel plate (holding hot ATP) was cut and afterw ards cast-off. The dried gel was developed using a […]
that containing no inhibitor served as positive control. […]

The subject of experiment [5] is LOX-IMVI melanoma cell line. The experiment can be described thus: LOX-IMVI melanoma cell line MTT cytotoxicity assay. The experiment is classed as cell-based. To be noted: Homo sapiens, 5-dose concentrations, read-out: LOX-IMVI melanoma IC50 ± SEM. As for the experimental part: The MTT cytotoxicity assay was used to assess the anticancer activity of VIc, VIf, and VIk on the LOX-IMVI melanoma cell line, which comprises BRAF^V600E kinase overexpression. The compounds were evaluated at 5-dose concentrations to ascertain their IC50 values, with staurosporine acting as a control.
The MTT cytotoxicity assay was used to assess the anticancer activity of VIc, VIf, and VIk on the LOX-IMVI melanoma cell line, which comprises BRAF^V600E kinase overexpression. Refer to Appendix A.

In the next experiment the target is Human CDK2/A2 (Homo sapiens, UniProt P24941). Kind of experiment: CDK2 inhibitory assay.

T1 sequence (P00533 669-1210): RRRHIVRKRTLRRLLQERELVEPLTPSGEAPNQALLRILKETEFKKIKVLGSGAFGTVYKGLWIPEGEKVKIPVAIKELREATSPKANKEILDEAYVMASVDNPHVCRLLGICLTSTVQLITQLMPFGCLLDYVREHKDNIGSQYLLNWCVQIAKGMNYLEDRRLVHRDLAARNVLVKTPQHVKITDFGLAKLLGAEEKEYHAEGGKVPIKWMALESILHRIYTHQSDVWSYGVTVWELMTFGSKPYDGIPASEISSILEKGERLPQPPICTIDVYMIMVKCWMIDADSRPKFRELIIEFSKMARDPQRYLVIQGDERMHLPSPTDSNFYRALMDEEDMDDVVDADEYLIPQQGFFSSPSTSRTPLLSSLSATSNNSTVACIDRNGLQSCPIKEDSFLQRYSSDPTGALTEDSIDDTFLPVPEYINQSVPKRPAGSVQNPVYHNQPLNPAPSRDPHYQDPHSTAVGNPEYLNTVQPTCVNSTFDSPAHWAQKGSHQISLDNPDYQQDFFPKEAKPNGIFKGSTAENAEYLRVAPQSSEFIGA
T2 sequence (P28028 whole entry V585E): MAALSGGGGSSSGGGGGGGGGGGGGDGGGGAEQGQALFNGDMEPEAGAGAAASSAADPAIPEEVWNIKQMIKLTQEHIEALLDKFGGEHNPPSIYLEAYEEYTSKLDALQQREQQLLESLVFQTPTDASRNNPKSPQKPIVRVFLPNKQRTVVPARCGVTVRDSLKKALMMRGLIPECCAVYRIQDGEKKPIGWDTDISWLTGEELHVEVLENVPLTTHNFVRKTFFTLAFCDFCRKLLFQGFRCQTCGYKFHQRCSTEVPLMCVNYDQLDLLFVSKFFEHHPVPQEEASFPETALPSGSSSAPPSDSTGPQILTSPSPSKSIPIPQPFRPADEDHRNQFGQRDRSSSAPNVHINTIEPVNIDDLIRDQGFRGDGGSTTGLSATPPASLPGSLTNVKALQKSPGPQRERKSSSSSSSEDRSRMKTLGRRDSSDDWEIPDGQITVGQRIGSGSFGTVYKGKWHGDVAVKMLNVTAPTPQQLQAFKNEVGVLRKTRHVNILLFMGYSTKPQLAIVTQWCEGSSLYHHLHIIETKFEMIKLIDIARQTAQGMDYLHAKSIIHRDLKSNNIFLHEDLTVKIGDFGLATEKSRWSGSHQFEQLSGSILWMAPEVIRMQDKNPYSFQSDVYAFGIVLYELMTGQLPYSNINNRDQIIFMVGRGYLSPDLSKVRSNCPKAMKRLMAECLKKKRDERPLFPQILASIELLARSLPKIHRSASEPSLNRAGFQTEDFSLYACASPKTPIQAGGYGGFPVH
Procedure for Human CDK2/A2: Protein Kinase Assays. Human CDK2/A2 was purchased from New England Biolabs IC50 values for CDK2/A were determined according to the supplier’s instructions

Take `NC(=NOC(=O)/C=C/C=C/c1ccc2c(c1)OCO2)c1ccc(Br)cc1` [VIc, N'-{[(2E,4E)-5-(2H-1,3-Benzodioxol-5-yl)penta-2,4-dienoyl]oxy}-4-bromobenzene-1-carboximidamide]: the IC50 in experiment [1] worked out at 45 ± 5 nM; in experiment [2] it was 47 ± 5 nM; in experiment [3], 55 ± 5 nM; on EGFR it was 112 ± 8 nM; at BRAF^V600E, 57 ± 6 nM; in experiment [5], 1400 ± 20 nM. This compound also gave an IC50 at Human CDK2/A2 of 23 ± 2 nM. For the same compound, in experiment [4], halving of growth (GI50) required 50 nM.
In the case of `N/C(=N/OC(=O)/C=C/C=C/c1ccc2c(c1)OCO2)c1ccc2c(c1)OCO2` [VIk], the concentration for half-maximal inhibition (IC50) in experiment [1] is 32 ± 3 nM; in experiment [2], 35 ± 3 nM; in experiment [3], 38 ± 3 nM; on EGFR it was 127 ± 10 nM; at BRAF^V600E, 40 ± 4 nM; in experiment [5], 1050 ± 10 nM. The compound further gave an IC50 at Human CDK2/A2 of 12 ± 2 nM. Halving of growth in experiment [4] (GI50) required 35 nM. The “CDK2 potency relative to the reference dinaciclib (more potent)” value at Human CDK2/A2 (ratio of IC50 values) turned out to be 1.5 fold.
On to `NC(=NOC(=O)/C=C/C=C/c1ccc2c(c1)OCO2)c1ccccc1Cl` [VIf, N'-{[(2E,4E)-5-(2H-1,3-benzodioxol-5-yl)penta-2,4-dienoyl]oxy}-2-chlorobenzene-1-carboximidamide], for which the IC50 in experiment [1] came to 41 ± 4 nM; in experiment [2] it was 43 ± 4 nM; in experiment [3], 47 ± 4 nM; at EGFR, 105 ± 7 nM; on BRAF^V600E it was 49 ± 5 nM; in experiment [5], 1100 ± 10 nM. Half-maximal inhibition on Human CDK2/A2 (IC50) was put at 21 ± 2 nM. Also, halving of growth in experiment [4] (GI50) required 44 nM.

By IC50 is commonly meant the concentration needed to halve the response being measured. As usually defined, the GI50 is the concentration giving 50% growth inhibition. High values mean lower sensitivity of the cells, low ones greater sensitivity of the cells.
